Patent US10538555B2, “Macrocyclic inhibitors of the PD-1/PD-L1 and CD80(B7-1)/PD-L1 protein/protein interactions” (BRISTOL-MYERS SQUIBB COMPANY, priority 2014, dated 2020)
Like-named read-outs stand apart in the source and are kept apart here. *1 amine or outer side, *2 acyl side, *3 side chain or, on linkers, in order; H or OH if unused. Where a SMILES comes first, the peptide text is derived from it. Bridges are numbered along the chain shown (N, C = ends). [ ]: non-standard residue; d: D form. ξ: configuration not given here. Trp(1-CH2COOH) = N[C@@H](Cc1cn(CC(=O)O)c2ccccc12)C(=O)O; Phe(3,4,5-F3) = N[C@@H](Cc1cc(F)c(F)c(F)c1)C(=O)O; Phe(3,4-F2) = N[C@@H](Cc1ccc(F)c(F)c1)C(=O)O; NMePhe(4-F) = CN[C@@H](Cc1ccc(F)cc1)C(=O)O; Bta = N[C@@H](Cc1csc2ccccc12)C(=O)O; Hyp = O=C(O)[C@@H]1C[C@@H](O)CN1; NMeF = CN[C@@H](Cc1ccccc1)C(=O)O; X1 = O=C([C@H]1COCCN1[*:1])[*:2]; dHyp = O=C(O)[C@H]1C[C@H](O)CN1; NMehSer = CN[C@@H](CCO)C(=O)O; NMeNle = CCCC[C@H](NC)C(=O)O; Tle = CC(C)(C)[C@H](N)C(=O)O; Pip = O=C(O)[C@@H]1CCCCN1; dPip = O=C(O)[C@H]1CCCCN1; hSer = N[C@@H](CCO)C(=O)O; NMeA = CN[C@@H](C)C(=O)O; Orn = NCCC[C@H](N)C(=O)O; dNMeA = CN[C@H](C)C(=O)O; Dab = NCC[C@H](N)C(=O)O; Dap = NC[C@H](N)C(=O)O; ξC = NC(CS)C(=O)O; Sar = CNCC(=O)O

Biological target: T1, Human PD-L1/PD-1 (Homo sapiens, UniProt Q9NZQ7)
T1 construct: TVMV protease cleavage site (C); made in house; host or cells: HEK293T cells
T1 sequence (Q9NZQ7 with tags, fused parts or gaps): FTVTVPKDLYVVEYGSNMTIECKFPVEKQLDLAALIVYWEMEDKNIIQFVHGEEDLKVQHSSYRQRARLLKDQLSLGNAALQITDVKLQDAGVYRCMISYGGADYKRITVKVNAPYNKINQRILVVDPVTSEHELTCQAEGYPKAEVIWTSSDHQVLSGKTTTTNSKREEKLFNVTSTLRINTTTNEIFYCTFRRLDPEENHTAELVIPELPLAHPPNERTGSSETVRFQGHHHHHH
Test: HTRF Human PD-L1/PD-1 binding assay (PD-1-Ig/PD-L1-His)
Details: PD-L1-His 10 nM, PD-1-Ig 20 nM
Procedure, shortened: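 Truncated Fc-fused human PD-1 (aa 25-167) at 20 nM and His-tagged PD-L1 (aa 18-239) at 10 nM final are used, with peptides preincubated 15 min with PD-L1. Detection uses europium-cryptate anti-Ig and APC anti-His antibodies; 665/620 nm ratio.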

[1] = class symbol, read-out: HTRF Human PD-L1/PD-1 Binding Assay IC50 Range

| SMILES | IC50 [1] [nM] | IC50 (read-out: HTRF Human PD-L1/PD-1 Binding Assay IC50) [nM] |
| --- | --- | --- |
| CCCC[C@H]1C(=O)N(C)[C@@H](CCCC)C(=O)N[C@@H](CCC(=O)O)C(=O)NC(C(=O)NCC(N)=O)CSCC(=O)N[C@@H](Cc2ccc(O)cc2)C(=O)N(C)[C@@H](C)C(=O)N[C@@H](CC(N)=O)C(=O)N2CCC[C@H]2C(=O)N[C@@H](Cc2c[nH]cn2)C(=O)N[C@@H](CC(N)=O)C(=O)N2CCC[C@H]2C(=O)N[C@@H](Cc2c[nH]c3ccccc23)C(=O)N[C@@H](CC(=O)O)C(=O)N[C@@H](Cc2c[nH]c3ccccc23)C(=O)N1C (stereo partly drawn) [Example 9174] ({CH2CO}-Y[NMeA]NPHNPWDW[NMeNle][NMeNle]E[ξC]G-NH2; thioether N-14) | 100 to 990 |  |
| CCCC[C@H]1C(=O)N[C@@H](CC(N)=O)C(=O)N2CCC[C@H]2C(=O)N[C@@H](CO)C(=O)N[C@@H](CCO)C(=O)N2C[C@H](O)C[C@H]2C(=O)N[C@@H](Cc2c[nH]c3ccccc23)C(=O)N[C@@H](CN)C(=O)N[C@@H](Cc2c[nH]c3ccccc23)C(=O)N(C)[C@@H](C)C(=O)N(C)[C@@H](C)C(=O)N[C@@H](CCCNC(=N)N)C(=O)NC(C(=O)NCC(N)=O)CSCC(=O)N[C@@H](Cc2ccc(O)cc2)C(=O)N1C (stereo partly drawn) [Example 10199] ({CH2CO}-Y[NMeNle]NPS[hSer][Hyp]W[Dap]W[NMeA][NMeA]R[ξC]G-NH2; thioether N-14) | 1000 to 10000 |  |
| CCCC[C@H]1C(=O)N(C)[C@@H](CCCC)C(=O)N[C@@H](CC(C)C)C(=O)N[C@H](C(=O)NCC(N)=O)CSCC(=O)N[C@@H](Cc2ccc(O)cc2)C(=O)N2CCCC[C@H]2C(=O)N[C@@H](CC(N)=O)C(=O)N2CCC[C@H]2C(=O)N[C@@H](CO)C(=O)N[C@@H](CCC(N)=O)C(=O)N2C[C@H](O)C[C@H]2C(=O)N[C@@H](Cc2c[nH]c3ccccc23)C(=O)N[C@@H](CO)C(=O)N[C@@H](Cc2cn(CC(=O)O)c3ccccc23)C(=O)N1C [Example 1304] ({CH2CO}-Y[Pip]NPSQ[Hyp]WS[Trp(1-CH2COOH)][NMeNle][NMeNle]LCG-NH2; thioether N-14) | 10 to 99.9 |  |
| CCCC[C@H]1C(=O)N(C)CC(=O)N[C@@H](CC(=O)O)C(=O)N[C@@H](C(C)(C)C)C(=O)N(C)[C@@H](Cc2ccccc2)C(=O)N[C@@H](Cc2ccc(O)cc2)C(=O)N(C)CC(=O)N[C@@H](Cc2c[nH]c3ccccc23)C(=O)N[C@@H](Cc2ccc(O)cc2)C(=O)N[C@@H](CC(C)C)C(=O)N[C@H](C(=O)NCC(N)=O)CSCC(=O)N[C@@H](Cc2ccccc2)C(=O)N(C)[C@@H](Cc2ccccc2)C(=O)N1C [Example 3211] ({CH2CO}-F[NMeF][NMeNle][Sar]D[Tle][NMeF]Y[Sar]WYLCG-NH2; thioether N-13) | 10 to 99.9 |  |
| CCCC[C@H]1C(=O)N[C@@H](CC(N)=O)C(=O)N2CCC[C@H]2C(=O)N[C@@H](CO)C(=O)N[C@@H](CCO)C(=O)N2CCC[C@H]2C(=O)N[C@@H](Cc2c[nH]c3ccccc23)C(=O)N[C@@H](CCCN)C(=O)N[C@@H](Cc2c[nH]c3ccccc23)C(=O)N(C)[C@@H](C)C(=O)N(C)[C@@H](C)C(=O)N[C@@H](CCCNC(=N)N)C(=O)NC(C(=O)NCC(N)=O)CSCC(=O)N[C@@H](Cc2ccc(O)cc2)C(=O)N1C (stereo partly drawn) [Example 10198] ({CH2CO}-Y[NMeNle]NPS[hSer]PW[Orn]W[NMeA][NMeA]R[ξC]G-NH2; thioether N-14) | 1000 to 10000 |  |
| CCCC[C@H]1C(=O)N(C)[C@@H](CCCC)C(=O)N[C@@H](CC(C)C)C(=O)N[C@H](C(=O)NCC(N)=O)CSCC(=O)N[C@@H](Cc2ccc(O)cc2)C(=O)N(C)[C@@H](C)C(=O)N[C@@H](CC(=O)O)C(=O)N2CCC[C@H]2C(=O)N[C@@H](Cc2c[nH]cn2)C(=O)N[C@@H](CCCCNC(C)=O)C(=O)N2C[C@H](O)C[C@H]2C(=O)N[C@@H](Cc2c[nH]c3ccccc23)C(=O)N[C@@H](CCCCN)C(=O)N[C@@H](Cc2c[nH]c3ccccc23)C(=O)N1C [Example 5202] ({CH2CO}-Y[NMeA]DPHK(Ac)[Hyp]WKW[NMeNle][NMeNle]LCG-NH2; thioether N-14) | 1 to 9.9 |  |
| CCCC[C@H]1C(=O)N(C)[C@@H](CCCC)C(=O)N[C@@H](CC(C)C)C(=O)N[C@H](C(=O)NCC(N)=O)CSCC(=O)N[C@@H](Cc2ccc(O)cc2)C(=O)N(C)[C@@H](C)C(=O)N[C@@H](CC(N)=O)C(=O)N2CCC[C@H]2C(=O)N[C@H](C)C(=O)N[C@@H](CCC(=O)O)C(=O)N2C[C@H](O)C[C@H]2C(=O)N[C@@H](Cc2c[nH]c3ccccc23)C(=O)N[C@@H](CCN)C(=O)N[C@@H](Cc2csc3ccccc23)C(=O)N1C [Example 5248] ({CH2CO}-Y[NMeA]NP[dA]E[Hyp]W[Dab][Bta][NMeNle][NMeNle]LCG-NH2; thioether N-14) | 1 to 9.9 |  |
| COCC[C@H]1C(=O)N2C[C@@H](O)C[C@@H]2C(=O)N[C@@H](CC(=O)O)C(=O)N[C@@H](C(C)C)C(=O)N(C)[C@@H](Cc2ccccc2)C(=O)N[C@@H](Cc2ccc(OC)cc2)C(=O)N2C[C@@H](O)C[C@@H]2C(=O)N[C@@H](Cc2c[nH]c3ccccc23)C(=O)N[C@@H](Cc2ccc(O)cc2)C(=O)N[C@@H](CCCN)C(=O)N[C@H](C(=O)NCC(N)=O)CSCC(=O)N[C@@H](Cc2ccc(F)c(F)c2)C(=O)N(C)[C@@H](Cc2ccccc2)C(=O)N1C [Example 9239] ({CH2CO}-[Phe(3,4-F2)][NMeF][NMehSer](Me)[dHyp]DV[NMeF]Y(Me)[dHyp]WY[Orn]CG-NH2; thioether N-13) |  | 3.8 |
| CCCC[C@H]1C(=O)N2C[C@@H](O)C[C@@H]2C(=O)N[C@@H](CC(=O)O)C(=O)N[C@@H](C(C)C)C(=O)N(C)[C@@H](Cc2ccccc2)C(=O)N[C@@H](CCC(=O)O)C(=O)N2CCOC[C@@H]2C(=O)N[C@@H](Cc2c[nH]c3ccccc23)C(=O)N[C@@H](Cc2ccc(O)cc2)C(=O)N[C@@H](CCCN)C(=O)N[C@H](C(=O)NCC(N)=O)CSCC(=O)N[C@@H](Cc2ccc(F)c(F)c2)C(=O)N(C)[C@@H](Cc2ccccc2)C(=O)N1C [Example 9279] ({CH2CO}-[Phe(3,4-F2)][NMeF][NMeNle][dHyp]DV[NMeF]E[X1]WY[Orn]CG-NH2; thioether N-13) | 1 to 9.9 |  |
| CCCC[C@H]1C(=O)N(C)[C@@H](CCCC)C(=O)N[C@@H](CCC(=O)O)C(=O)NC(C(=O)NCC(N)=O)CSCC(=O)N[C@@H](Cc2ccc(O)cc2)C(=O)N(C)[C@@H](C)C(=O)N[C@@H](CC(N)=O)C(=O)N2CCC[C@H]2C(=O)N[C@@H](Cc2c[nH]cn2)C(=O)N[C@@H](CC(N)=O)C(=O)N2C[C@H](O)C[C@H]2C(=O)N[C@@H](Cc2c[nH]c3ccccc23)C(=O)N[C@@H](CO)C(=O)N[C@@H](Cc2c[nH]c3ccccc23)C(=O)N1C (stereo partly drawn) [Example 9171] ({CH2CO}-Y[NMeA]NPHN[Hyp]WSW[NMeNle][NMeNle]E[ξC]G-NH2; thioether N-14) | 1 to 9.9 |  |
| CCCC[C@H]1C(=O)N(C)[C@@H](CCCC)C(=O)N[C@@H](CC(C)C)C(=O)N[C@H](C(=O)NCC(N)=O)CSCC(=O)N[C@@H](Cc2ccc(O)cc2)C(=O)N2CCCC[C@@H]2C(=O)N[C@@H](CC(=O)O)C(=O)N2CCC[C@H]2C(=O)N[C@@H](Cc2cnc[nH]2)C(=O)N[C@@H](CCCCN)C(=O)N2C[C@H](O)C[C@H]2C(=O)N[C@@H](Cc2c[nH]c3ccccc23)C(=O)N[C@@H](CCCCN)C(=O)N[C@@H](Cc2cn(CC(=O)O)c3ccccc23)C(=O)N1C [Example 1296] ({CH2CO}-Y[dPip]DPHK[Hyp]WK[Trp(1-CH2COOH)][NMeNle][NMeNle]LCG-NH2; thioether N-14) | 1 to 9.9 |  |
| CCCC[C@H]1C(=O)N2CCC[C@@H]2C(=O)N[C@@H](CC(=O)O)C(=O)N[C@@H](C(C)C)C(=O)N(C)[C@@H](Cc2ccccc2)C(=O)N[C@@H](Cc2ccc(O)cc2)C(=O)N2CCOC[C@@H]2C(=O)N[C@@H](Cc2c[nH]c3ccccc23)C(=O)N[C@@H](Cc2ccc(O)cc2)C(=O)N[C@@H](CCOC)C(=O)N[C@H](C(=O)NCC(N)=O)CSCC(=O)N[C@@H](Cc2cc(F)c(F)c(F)c2)C(=O)N(C)[C@@H](Cc2ccccc2)C(=O)N1C [Example 10187] ({CH2CO}-[Phe(3,4,5-F3)][NMeF][NMeNle][dP]DV[NMeF]Y[X1]WY[hSer](Me)CG-NH2; thioether N-13) | 1 to 9.9 |  |
| CC(C)[C@@H]1NC(=O)[C@H](CC(N)=O)NC(=O)[C@@H](C)N(C)C(=O)[C@H](C)N(C)C(=O)[C@H](Cc2ccccc2)N(C)C(=O)[C@H](Cc2cc(F)c(F)c(F)c2)NC(=O)CSC[C@@H](C(=O)NCC(N)=O)NC(=O)[C@H](CCCN)NC(=O)[C@H](Cc2ccc(O)cc2)NC(=O)[C@H](Cc2c[nH]c3ccccc23)NC(=O)[C@@H](C)N(C)C(=O)[C@H](Cc2ccc(O)cc2)NC(=O)[C@H](Cc2ccccc2)N(C)C1=O [Example 9195] ({CH2CO}-[Phe(3,4,5-F3)][NMeF][NMeA][dNMeA]NV[NMeF]Y[dNMeA]WY[Orn]CG-NH2; thioether N-13) | 1 to 9.9 |  |
| CCCC[C@H]1C(=O)N(C)[C@@H](CCCC)C(=O)N[C@@H](CCC(=O)O)C(=O)NC(C(=O)NCC(N)=O)CSCC(=O)N[C@@H](Cc2ccc(O)cc2)C(=O)N(C)[C@@H](C)C(=O)N[C@@H](CC(N)=O)C(=O)N2CCC[C@H]2C(=O)N[C@@H](CC(N)=O)C(=O)N[C@@H](CC(C)C)C(=O)N2CCC[C@H]2C(=O)N[C@@H](Cc2c[nH]c3ccccc23)C(=O)N[C@@H](CCO)C(=O)N[C@@H](Cc2c[nH]c3ccccc23)C(=O)N1C (stereo partly drawn) [Example 9184] ({CH2CO}-Y[NMeA]NPNLPW[hSer]W[NMeNle][NMeNle]E[ξC]G-NH2; thioether N-14) | 10 to 99.9 |  |
| CCCC[C@H]1C(=O)N2CCC[C@@H]2C(=O)N[C@@H](CC(=O)O)C(=O)N[C@@H](C(C)C)C(=O)N(C)[C@@H](Cc2ccccc2)C(=O)N[C@@H](CCN)C(=O)N2CCCC[C@@H]2C(=O)N[C@H](CCC(=O)O)C(=O)N[C@@H](Cc2ccc(O)cc2)C(=O)N[C@@H](CCCN)C(=O)N[C@H](C(=O)NCC(N)=O)CSCC(=O)N[C@@H](Cc2cc(F)c(F)c(F)c2)C(=O)N(C)[C@@H](Cc2ccc(F)cc2)C(=O)N1C [Example 10609] ({CH2CO}-[Phe(3,4,5-F3)][NMePhe(4-F)][NMeNle][dP]DV[NMeF][Dab][dPip][dE]Y[Orn]CG-NH2; thioether N-13) | 100 to 990 |  |
